Measured values taken from article PMC6100724, “Proteome‐wide analysis of phospho‐regulated PDZ domain interactions” (Molecular Systems Biology, 2018).

Tests used:
Scribble PDZ1 [1] = target: T1, Scribble PDZ1 (Homo sapiens, UniProt Q14160); assay: Pre-phosphorylation ProP-PD: wild-type library treated with RPS6KA1 or not, selection with NGS; format: binding; settings: mean of the two selections, bait Scribble PDZ1; for Phosphorylated selection Mean fraction: Pre-phosphorylation with RPS6KA1; for Unphosphorylated selection Mean fraction: Without Kinase
T1 construct: human Scribble PDZ1 aa 719–829 in; made in house; host or cells: E. coli BL21 Gold (DE3)
Description: For pre‐phosphorylation of the wild‐type ProP‐PD library, we obtained activated RPS6KA1 (Thermo Fisher). The time and amount of kinase required to phosphorylate the ProP‐PD library were tested in a phosphorylation assay.
(§1) Phage selections were carried out for four rounds following a protocol by Huang and Sidhu (Huang & Sidhu, 2011) with minor modifications. Non‐specific binding phage was removed by pre‐selections against immobilized GST throughout the selection. The selections against the (pre‐)phosphorylated wild‐type library were performed in 50 mM HEPES (pH 7.4) and 150 mM NaCl (HBS) following the same procedure after pre‐phosphorylation of the library.
(§2) • Immobilize proteins (15 μg in 100 μl PBS) in a 96‐well MaxiSorp microtiter plate (NUNC) overnight at 4°C. • Start a 2YT culture of E. coli Omnimax supplemented with 100 μg/ml tetracycline to retain the F pilus epitope. • Block the wells with 200 μl 0.5% BSA in PBS for 2 h at 4°C. • Precipitate naïve phage library (10^11 cfu per selection) or amplified phage pool from the previous round of selection by adding one‐fifth the volume of PEG/NaCl. • Incubate on ice for 10 min, and pellet precipitated phage by centrifugation at 5,300 g for 15 min. Resuspend the phage pellet in 100 μl PBS per selection. • Add 100 μl of phage solution to the GST‐coated pre‐selection wells and incubate for 1 h. • Transfer the phage solution to the immobilized target proteins and allow it to bind for 2 h at 8°C. • Wash the plate four times with 200 μl cold wash buffer (PBS, 0.05% Tween‐20). • Elute bound phage by incubation with 100 μl log phase (0.6–0.8 OD600) E. coli Omnimax for 30 min at 37°C with shaking (200 RPM). • Add 10^12 cfu/ml M13K07 helper phage for hyperinfection of the bacteria and incubate as above for 45 min. • Transfer the bacterial culture to 10 ml 2YT supplemented with 50 μg/ml carbenicillin, 25 μg/ml kanamycin, and 300 μM IPTG and incubate overnight at 37°C while shaking. • Perform phage pool ELISA to monitor the progress of the selection as described previously (Huang & Sidhu, 2011).
• Precipitate the naive wild‐type phage library (as described above, 1.8 × 10^10 cfu phage per selection). • Resuspend the precipitated phage pellets in 100 μl Kinase buffer per selection and add ATP (100 μM final concentration) and RPS6KA1 (500 ng/ml) to the phage solution. In parallel, prepare a negative control where only ATP is added to the phage pool. • Incubate the phosphorylation reaction for 2 h at room temperature. Stop the reaction through PEG/NaCl precipitation (as described above). • Resuspend the phage pool in 100 μl HBS.
During the 4 days of pre‐phosphorylation ProP‐PD selections, the input phage library of each day of selection was subjected to phosphorylation prior to phage selection.
(§3) The naïve library and the enriched phage pools of the third day of selection were amplified and barcoded by PCR and analyzed by NGS as described elsewhere (McLaughlin & Sidhu, 2013; Ivarsson et al, 2014). The reads were demultiplexed using the barcode sequences and filtered by discarding sequences with a Phred quality score under 30. Sequences were mapped to the original library using Bowtie (Langmead et al, 2009) with two mismatches between reads and library sequence. Nucleotide mutations leading to amino acid substitutions were subsequently removed. Cutoff values of NGS counts were assigned for each pool. PWMs were generated based on the remaining peptides (aligned on the C‐termini) using WebLogo (Crooks et al, 2004).

DLG1 PDZ2 = target: T2, DLG1 PDZ2 (Homo sapiens, UniProt Q12959); assay: Phosphomimetic ProP-PD selection with NGS; format: binding; settings: mean of selections 1-3, bait DLG1 PDZ2
T2 construct: human DLG1 PDZ2 aa 311–407 in a modified pRSET vector 40; made in house; host or cells: E. coli BL21 Gold (DE3)
Description: as §1, §2, §3
(§4) However, there was no significant correlation of the actual read counts (selection “strength”) and the initial representation in the library, reflecting the strong selection during phage display (wt+mimetic: P‐value: 0.49, ρ = −0.08, mimetic only: P‐value: 0.069, ρ = −0.2, wt only: P‐value: 0.12, ρ = 0.17). Consequently, the amount of reads for each binder after phage display is not a function of the amount of input reads in the naïve library and no modeling based on the input library frequencies to score the interactions is necessary. To allow for comparison between replicate selections, we used the fraction of NGS reads within a certain set, instead of the absolute number of NGS reads, as the absolute numbers differ between different NGS batches.

DLG1 PDZ1 = assay: Phosphomimetic ProP-PD selection with NGS; format: binding, human; settings: mean of selections 1-3, bait DLG1 PDZ1; for Mean fraction #NGS counts mimetic peptide / total count selection: phosphomimetic peptide; for Mean fraction #NGS counts wt peptide / total counts selection: wild type peptide
Description: as §1, §2, §3, §4

Scribble PDZ3 = assay: Phosphomimetic ProP-PD selection with NGS; format: binding, human; settings: mean over selections 1-3; bait Scribble PDZ3
Description: as §1, §2, §3, §4

DLG1 PDZ3 = assay: Phosphomimetic ProP-PD selection with NGS; format: binding, human; settings: mean of selections 1-3; bait DLG1 PDZ3
Description: as §1, §2, §3, §4

Scribble PDZ1 [2] = target: T1, Scribble PDZ1; assay: Phosphomimetic ProP-PD selection with NGS; format: binding; settings: bait Scribble PDZ1; mean of selections 1-3
Description: as §1, §2, §3, §4

Scribble PDZ2 = assay: Phosphomimetic ProP-PD selection with NGS; format: binding, human; settings: bait Scribble PDZ2; mean of selections 1 and 2 (selection 3 empty)
Description: as §1, §2, §3, §4

T2 sequence (Q12959 311-407): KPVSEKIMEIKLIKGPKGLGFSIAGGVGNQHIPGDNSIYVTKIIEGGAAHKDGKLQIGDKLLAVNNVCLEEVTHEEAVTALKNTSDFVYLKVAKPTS
T1 sequence (Q14160 719-829): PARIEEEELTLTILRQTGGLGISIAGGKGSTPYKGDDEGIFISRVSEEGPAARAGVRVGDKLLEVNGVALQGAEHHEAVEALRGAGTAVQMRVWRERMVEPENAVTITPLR

DKESFLTWL [YAP1]
Phosphorylated selection Mean fraction (Scribble PDZ1 [1]): 0.0002294
Unphosphorylated selection Mean fraction (Scribble PDZ1 [1]): 0.0001256

EIKLKTSFF
Mean fraction #NGS counts mimetic peptide / total count selection (DLG1 PDZ2; phosphomimetic peptide): 0.002811
Mean fraction #NGS counts mimetic peptide / total count selection (DLG1 PDZ1): 0.06227
Mean fraction #NGS counts mimetic peptide / total count selection (Scribble PDZ3): 6.807e-5
Mean fraction #NGS counts mimetic peptide / total count selection (DLG1 PDZ3): 0.01375

GGKRKEELV
Mean fraction #NGS counts mimetic peptide / total count selection (DLG1 PDZ2): 0.0001104
Mean fraction #NGS counts mimetic peptide / total count selection (DLG1 PDZ1): 3.0718e-6
Mean fraction #NGS counts mimetic peptide / total count selection (Scribble PDZ3): 0
Mean fraction #NGS counts mimetic peptide / total count selection (DLG1 PDZ3): 0

GGKRKETLV
Mean fraction #NGS counts wt peptide / total counts selection (DLG1 PDZ2): 0.3203
Mean fraction #NGS counts wt peptide / total counts selection (DLG1 PDZ1): 0.3267
Mean fraction #NGS counts wt peptide / total counts selection (Scribble PDZ3): 6.172e-5
Mean fraction #NGS counts wt peptide / total counts selection (DLG1 PDZ3): 0.06478

KGRAKGEPV
Mean fraction #NGS counts mimetic peptide / total count selection (DLG1 PDZ3): 0

KGRAKGTPV
Mean fraction #NGS counts wt peptide / total counts selection (DLG1 PDZ3): 0.0008774

KREFIESNV
Mean fraction #NGS counts mimetic peptide / total count selection (DLG1 PDZ2; phosphomimetic peptide): 0.0001273
Mean fraction #NGS counts mimetic peptide / total count selection (Scribble PDZ1 [2]): 0.0009157
Mean fraction #NGS counts mimetic peptide / total count selection (Scribble PDZ2): 0.003418
Mean fraction #NGS counts mimetic peptide / total count selection (DLG1 PDZ1): 2.37e-6
Mean fraction #NGS counts mimetic peptide / total count selection (Scribble PDZ3): 0.005112

KRSFIESNV
Mean fraction #NGS counts wt peptide / total counts selection (DLG1 PDZ2; wild type peptide): 0.007809
Mean fraction #NGS counts wt peptide / total counts selection (Scribble PDZ1 [2]): 0.03115
Mean fraction #NGS counts wt peptide / total counts selection (Scribble PDZ2): 0.2119
Mean fraction #NGS counts wt peptide / total counts selection (DLG1 PDZ1): 0.0007809
Mean fraction #NGS counts wt peptide / total counts selection (Scribble PDZ3): 0.07707

KSEPFLTWL [WWTR1]
Phosphorylated selection Mean fraction (Scribble PDZ1 [1]): 1.399e-5
Unphosphorylated selection Mean fraction (Scribble PDZ1 [1]): 1.381e-5

LPHSPHSHL [AAAS]
Phosphorylated selection Mean fraction (Scribble PDZ1 [1]): 6.993e-6
Unphosphorylated selection Mean fraction (Scribble PDZ1 [1]): 4.139e-6

LPKIKETTV [FRMPD4]
Phosphorylated selection Mean fraction (Scribble PDZ1 [1]): 0.001062
Unphosphorylated selection Mean fraction (Scribble PDZ1 [1]): 0.0007483

PANRRETPV
Mean fraction #NGS counts mimetic peptide / total count selection (DLG1 PDZ1): 3.546e-5
Mean fraction #NGS counts mimetic peptide / total count selection (DLG1 PDZ3): 0.0003587

PANRRTTPV
Mean fraction #NGS counts wt peptide / total counts selection (DLG1 PDZ1): 0
Mean fraction #NGS counts wt peptide / total counts selection (DLG1 PDZ3): 0

PIHSLETSL [ATP2B2]
Phosphorylated selection Mean fraction (Scribble PDZ1 [1]): 0.0009701
Unphosphorylated selection Mean fraction (Scribble PDZ1 [1]): 0.003212

PLHSLETSL [ATP2B1]
Phosphorylated selection Mean fraction (Scribble PDZ1 [1]): 0.0003108
Unphosphorylated selection Mean fraction (Scribble PDZ1 [1]): 1.381e-5

RATEPGSGL
Mean fraction #NGS counts mimetic peptide / total count selection (DLG1 PDZ3): 0

RATSPGSGL
Mean fraction #NGS counts wt peptide / total counts selection (DLG1 PDZ3): 0.001731

RPYRREEEI
Mean fraction #NGS counts mimetic peptide / total count selection (Scribble PDZ3): 0
Mean fraction #NGS counts mimetic peptide / total count selection (DLG1 PDZ3): 0

RPYRRESEI
Mean fraction #NGS counts mimetic peptide / total count selection (DLG1 PDZ2): 0
Mean fraction #NGS counts wt peptide / total counts selection (DLG1 PDZ2): 3.461e-5
Mean fraction #NGS counts wt peptide / total counts selection (Scribble PDZ3): 9.302e-5
Mean fraction #NGS counts wt peptide / total counts selection (DLG1 PDZ3): 2.154e-5

RQTEYQGVL
Mean fraction #NGS counts mimetic peptide / total count selection (DLG1 PDZ2): 0
Mean fraction #NGS counts mimetic peptide / total count selection (DLG1 PDZ3): 3.59e-6

RQTSYQGVL
Mean fraction #NGS counts wt peptide / total counts selection (DLG1 PDZ2): 0.001671
Mean fraction #NGS counts wt peptide / total counts selection (DLG1 PDZ3): 0.008629
